Assay results reported in patent publication US8114911B2, “Prostaglandin compounds for the treatment of obesity” (Sucampo AG, priority 2003, dated 2012).
Entries after “also recorded” stand apart in the source; their conditions may differ.

Assay: Body weight change in volunteers after 21 days of oral test capsules
Format: in vivo, human
Conditions: oral capsules before meals, 24, 48 or 72 μg of test substance per day for 21 days, body weight 3 weeks after initiation vs before, placebo control group increased
Procedure: 13,14-dihydro-15-keto-16,16-difluoro-PGE1 was used as the test substance. Test capsule for oral administration containing 24 μg of the test substance and placebo capsule made from inert ingredients which was identical to the test capsule were prepared.
Volunteers were divided into 4 groups. The test groups received 24, 48 and 72 μg of the test substance per day respectively and the control group received the placebo. All volunteers were instructed to take one capsule before each meal (morning-, day- and evening-time) everyday for 21 days. Test group I (27 volunteers) received 24 μg of the test substance per day by taking the test capsule at the morning time and the placebo capsule at each of the day and evening times; test group II (32 volunteers) received 48 μg of the test substance per day by taking the test capsule at each of the morning and evening times and the placebo capsule at the day time; test group III (32 volunteers) received 72 μg of the test substance by taking the test capsule three times per day. Control group (33 volunteers) received the placebo capsule every time. Volunteers were instructed to take each capsule with 8 ounces of water prior to eating a meal. Body weight was measured before and 3 weeks after the initiation of the administration.

## CCCCC(F)(F)C(=O)CCC1C(O)CC(=O)C1CCCCCCC(=O)O (stereo not shown) [13,14-dihydro-15-keto-16,16-difluoro-PGE1]
  changes of body weight from the pre-values: body weight reductions were observed in all test groups; also recorded: decreased in a dose dependent manner
